# According to US6358885B1, “Substituted phenylheterocyclic herbicides” (Mississippi State University, priority 1992, dated 2002):
# Assays:
# Assay in all cases: Test F preemergence/postemergence greenhouse plant response rating 0 to 100
# Settings in all cases: 0 to 100 scale
# wild mustard = type: in vivo, Sinapis arvensis
# From the text: (§1) Compounds evaluated in this test were formulated in a non-phytoxic solvent and applied to the soil surface before plant seedlings emerged (preemergence application) and to plants that were in the one-to-four leaf stage (postemergence application). A sandy loam soil was used for the preemergence test while a mixture of sandy loam soil and greenhouse potting mix in a 60:40 ratio was used for the postemergence test. Test compounds were applied within approximately one day after planting seeds for the preemergence test. Plantings of these crops and weed species were adjusted to produce plants of appropriate size for the postemergence test. All plant species were grown using normal greenhouse practices. Crop and weed species include winter barley (Hordeum vulgare cv. ‘Igri’), blackgrass (Alopecurus myosuroides), chickweed (Stellaria media), downy brome (Bromus tectorum), field violet (Viola arvensis), galium (Galium aparine), green foxtail (Setaria viridis), kochia (Kochia scoparia), lambsquarters (Chenopodium album), speedwell (Veronica persica), rape (Brassica napus), ryegrass (Lolium multiflorum), sugar beet (Beta vulgaris cv. ‘USl’), sunflower (Helianthus annuus cv. ‘Russian Giant’), spring wheat (Triticum aestivum cv. ‘ERA’), winter wheat (Triticum aestivum cv. ‘Talent’), wild buckwheat (Polygonum convolvulus), wild mustard (Sinapis arvensis), wild oat (Avena fatua), and wild radish (Raphanus raphanistrum). Blackgrass, galium and wild oat were treated at two growth stages. […] Treated plants and untreated controls were maintained in a greenhouse for approximately 21 to 28 days, after which all treated plants were compared to untreated controls and visually evaluated. […] A dash response (-) means no test result.
# downy brome = type: in vivo, Bromus tectorum
# From the text: as §1
# ryegrass = type: in vivo, Lolium multiflorum
# From the text: as §1
# sunflower = type: in vivo, Helianthus annuus cv. ‘Russian Giant’
# From the text: as §1
# winter wheat = type: in vivo, Triticum aestivum cv. ‘Talent’
# From the text: as §1
# wild oat = type: in vivo, Avena fatua
# From the text: as §1
# chickweed = type: in vivo, Stellaria media
# From the text: as §1
smiles,measurement,setting,value
C#CCOc1cc(-c2nn3c(c2Br)CCCC3)c(F)cc1Cl [Compound 26],Wild mustard plant response rating,"wild mustard; POSTEMERGENCE, Rate 4 g/ha",70
same,Wild mustard plant response rating,"wild mustard; POSTEMERGENCE, Rate 8 g/ha",70
same,Wild mustard plant response rating,"wild mustard; POSTEMERGENCE, Rate 16 g/ha",100
same,Wild mustard plant response rating,"wild mustard; POSTEMERGENCE, Rate 32 g/ha",100
same,Wild mustard plant response rating,"wild mustard; POSTEMERGENCE, Rate 64 g/ha",100
same,Wild mustard plant response rating,"wild mustard; POSTEMERGENCE, Rate 125 g/ha",100
same,Wild mustard plant response rating,"wild mustard; POSTEMERGENCE, Rate 250 g/ha",100
same,Wild mustard plant response rating,"wild mustard; PREEMERGENCE, Rate 4 g/ha",0
same,Wild mustard plant response rating,"wild mustard; PREEMERGENCE, Rate 8 g/ha",0
same,Wild mustard plant response rating,"wild mustard; PREEMERGENCE, Rate 16 g/ha",40
same,Wild mustard plant response rating,"wild mustard; PREEMERGENCE, Rate 32 g/ha",50
same,Wild mustard plant response rating,"wild mustard; PREEMERGENCE, Rate 64 g/ha",80
same,Wild mustard plant response rating,"wild mustard; PREEMERGENCE, Rate 125 g/ha",70
same,Downy brome plant response rating,"downy brome; POSTEMERGENCE, Rate 4 g/ha",0
same,Downy brome plant response rating,"downy brome; POSTEMERGENCE, Rate 8 g/ha",0
same,Downy brome plant response rating,"downy brome; POSTEMERGENCE, Rate 16 g/ha",0
same,Downy brome plant response rating,"downy brome; POSTEMERGENCE, Rate 32 g/ha",0
same,Downy brome plant response rating,"downy brome; POSTEMERGENCE, Rate 64 g/ha",30
same,Downy brome plant response rating,"downy brome; POSTEMERGENCE, Rate 125 g/ha",50
same,Downy brome plant response rating,"downy brome; POSTEMERGENCE, Rate 250 g/ha",10
same,Downy brome plant response rating,"downy brome; PREEMERGENCE, Rate 4 g/ha",0
same,Downy brome plant response rating,"downy brome; PREEMERGENCE, Rate 8 g/ha",0
same,Downy brome plant response rating,"downy brome; PREEMERGENCE, Rate 16 g/ha",0
same,Downy brome plant response rating,"downy brome; PREEMERGENCE, Rate 32 g/ha",0
same,Downy brome plant response rating,"downy brome; PREEMERGENCE, Rate 64 g/ha",0
same,Downy brome plant response rating,"downy brome; PREEMERGENCE, Rate 125 g/ha",30
same,Downy brome plant response rating,"downy brome; PREEMERGENCE, Rate 250 g/ha",40
same,Ryegrass plant response rating,"ryegrass; POSTEMERGENCE, Rate 4 g/ha",0
same,Ryegrass plant response rating,"ryegrass; POSTEMERGENCE, Rate 8 g/ha",0
same,Ryegrass plant response rating,"ryegrass; POSTEMERGENCE, Rate 16 g/ha",0
same,Ryegrass plant response rating,"ryegrass; POSTEMERGENCE, Rate 32 g/ha",5
same,Ryegrass plant response rating,"ryegrass; POSTEMERGENCE, Rate 64 g/ha",20
same,Ryegrass plant response rating,"ryegrass; POSTEMERGENCE, Rate 125 g/ha",30
same,Ryegrass plant response rating,"ryegrass; POSTEMERGENCE, Rate 250 g/ha",55
same,Ryegrass plant response rating,"ryegrass; PREEMERGENCE, Rate 4 g/ha",0
same,Ryegrass plant response rating,"ryegrass; PREEMERGENCE, Rate 8 g/ha",0
same,Ryegrass plant response rating,"ryegrass; PREEMERGENCE, Rate 16 g/ha",0
same,Ryegrass plant response rating,"ryegrass; PREEMERGENCE, Rate 32 g/ha",20
same,Ryegrass plant response rating,"ryegrass; PREEMERGENCE, Rate 64 g/ha",40
same,Ryegrass plant response rating,"ryegrass; PREEMERGENCE, Rate 125 g/ha",60
same,Ryegrass plant response rating,"ryegrass; PREEMERGENCE, Rate 250 g/ha",80
same,Sunflower plant response rating,"sunflower; POSTEMERGENCE, Rate 4 g/ha",0
same,Sunflower plant response rating,"sunflower; POSTEMERGENCE, Rate 8 g/ha",0
same,Sunflower plant response rating,"sunflower; POSTEMERGENCE, Rate 16 g/ha",0
same,Sunflower plant response rating,"sunflower; POSTEMERGENCE, Rate 32 g/ha",20
same,Sunflower plant response rating,"sunflower; POSTEMERGENCE, Rate 64 g/ha",60
same,Sunflower plant response rating,"sunflower; POSTEMERGENCE, Rate 125 g/ha",100
same,Sunflower plant response rating,"sunflower; POSTEMERGENCE, Rate 250 g/ha",60
same,Sunflower plant response rating,"sunflower; PREEMERGENCE, Rate 4 g/ha",0
same,Sunflower plant response rating,"sunflower; PREEMERGENCE, Rate 8 g/ha",0
same,Sunflower plant response rating,"sunflower; PREEMERGENCE, Rate 16 g/ha",0
same,Sunflower plant response rating,"sunflower; PREEMERGENCE, Rate 32 g/ha",0
same,Sunflower plant response rating,"sunflower; PREEMERGENCE, Rate 64 g/ha",0
same,Sunflower plant response rating,"sunflower; PREEMERGENCE, Rate 125 g/ha",10
same,Sunflower plant response rating,"sunflower; PREEMERGENCE, Rate 250 g/ha",60
same,Wheat (Winter) plant response rating,"winter wheat; POSTEMERGENCE, Rate 4 g/ha",0
same,Wheat (Winter) plant response rating,"winter wheat; POSTEMERGENCE, Rate 8 g/ha",0
same,Wheat (Winter) plant response rating,"winter wheat; POSTEMERGENCE, Rate 16 g/ha",0
same,Wheat (Winter) plant response rating,"winter wheat; POSTEMERGENCE, Rate 32 g/ha",15
same,Wheat (Winter) plant response rating,"winter wheat; POSTEMERGENCE, Rate 64 g/ha",20
same,Wheat (Winter) plant response rating,"winter wheat; POSTEMERGENCE, Rate 125 g/ha",30
same,Wheat (Winter) plant response rating,"winter wheat; POSTEMERGENCE, Rate 250 g/ha",20
same,Wheat (Winter) plant response rating,"winter wheat; PREEMERGENCE, Rate 4 g/ha",0
same,Wheat (Winter) plant response rating,"winter wheat; PREEMERGENCE, Rate 8 g/ha",0
same,Wheat (Winter) plant response rating,"winter wheat; PREEMERGENCE, Rate 16 g/ha",0
same,Wheat (Winter) plant response rating,"winter wheat; PREEMERGENCE, Rate 32 g/ha",0
same,Wheat (Winter) plant response rating,"winter wheat; PREEMERGENCE, Rate 64 g/ha",0
same,Wheat (Winter) plant response rating,"winter wheat; PREEMERGENCE, Rate 125 g/ha",10
same,Wheat (Winter) plant response rating,"winter wheat; PREEMERGENCE, Rate 250 g/ha",20
same,Wild oat (1) plant response rating,"wild oat; POSTEMERGENCE, Rate 4 g/ha, stage (1) two to three leaves",0
same,Wild oat (2) plant response rating,"wild oat; POSTEMERGENCE, Rate 4 g/ha, stage (2) approximately four leaves or initial tillering",0
same,Wild oat (1) plant response rating,"wild oat; POSTEMERGENCE, Rate 8 g/ha, stage (1) two to three leaves",0
same,Wild oat (2) plant response rating,"wild oat; POSTEMERGENCE, Rate 8 g/ha, stage (2) approximately four leaves or initial tillering",0
same,Wild oat (1) plant response rating,"wild oat; POSTEMERGENCE, Rate 16 g/ha, stage (1) two to three leaves",0
same,Wild oat (2) plant response rating,"wild oat; POSTEMERGENCE, Rate 16 g/ha, stage (2) approximately four leaves or initial tillering",0
same,Wild oat (1) plant response rating,"wild oat; POSTEMERGENCE, Rate 32 g/ha, stage (1) two to three leaves",25
same,Wild oat (2) plant response rating,"wild oat; POSTEMERGENCE, Rate 32 g/ha, stage (2) approximately four leaves or initial tillering",15
same,Wild oat (1) plant response rating,"wild oat; POSTEMERGENCE, Rate 64 g/ha, stage (1) two to three leaves",40
same,Wild oat (2) plant response rating,"wild oat; POSTEMERGENCE, Rate 64 g/ha, stage (2) approximately four leaves or initial tillering",15
same,Wild oat (1) plant response rating,"wild oat; POSTEMERGENCE, Rate 125 g/ha, stage (1) two to three leaves",45
same,Wild oat (2) plant response rating,"wild oat; POSTEMERGENCE, Rate 125 g/ha, stage (2) approximately four leaves or initial tillering",20
same,Wild oat (1) plant response rating,"wild oat; POSTEMERGENCE, Rate 250 g/ha, stage (1) two to three leaves",50
same,Wild oat (2) plant response rating,"wild oat; POSTEMERGENCE, Rate 250 g/ha, stage (2) approximately four leaves or initial tillering",30
same,Wild oat (1) plant response rating,"wild oat; PREEMERGENCE, Rate 4 g/ha, Wild oat (1)",0
same,Wild oat (2) plant response rating,"wild oat; PREEMERGENCE, Rate 4 g/ha, Wild oat (2)",0
same,Wild oat (1) plant response rating,"wild oat; PREEMERGENCE, Rate 8 g/ha, Wild oat (1)",0
same,Wild oat (2) plant response rating,"wild oat; PREEMERGENCE, Rate 8 g/ha, Wild oat (2)",0
same,Wild oat (1) plant response rating,"wild oat; PREEMERGENCE, Rate 16 g/ha, Wild oat (1)",0
same,Wild oat (2) plant response rating,"wild oat; PREEMERGENCE, Rate 16 g/ha, Wild oat (2)",0
same,Wild oat (1) plant response rating,"wild oat; PREEMERGENCE, Rate 32 g/ha, Wild oat (1)",0
same,Wild oat (2) plant response rating,"wild oat; PREEMERGENCE, Rate 32 g/ha, Wild oat (2)",0
same,Wild oat (1) plant response rating,"wild oat; PREEMERGENCE, Rate 64 g/ha, Wild oat (1)",10
same,Wild oat (2) plant response rating,"wild oat; PREEMERGENCE, Rate 64 g/ha, Wild oat (2)",20
same,Wild oat (1) plant response rating,"wild oat; PREEMERGENCE, Rate 125 g/ha, Wild oat (1)",20
same,Wild oat (2) plant response rating,"wild oat; PREEMERGENCE, Rate 125 g/ha, Wild oat (2)",30
same,Wild oat (1) plant response rating,"wild oat; PREEMERGENCE, Rate 250 g/ha, Wild oat (1)",30
same,Wild oat (2) plant response rating,"wild oat; PREEMERGENCE, Rate 250 g/ha, Wild oat (2)",50
same,Chickweed plant response rating,"chickweed; POSTEMERGENCE, Rate 4 g/ha",30
same,Chickweed plant response rating,"chickweed; POSTEMERGENCE, Rate 8 g/ha",40
same,Chickweed plant response rating,"chickweed; POSTEMERGENCE, Rate 16 g/ha",100
same,Chickweed plant response rating,"chickweed; POSTEMERGENCE, Rate 32 g/ha",90
same,Chickweed plant response rating,"chickweed; POSTEMERGENCE, Rate 64 g/ha",100
same,Chickweed plant response rating,"chickweed; POSTEMERGENCE, Rate 125 g/ha",100
same,Chickweed plant response rating,"chickweed; POSTEMERGENCE, Rate 250 g/ha",100
same,Chickweed plant response rating,"chickweed; PREEMERGENCE, Rate 4 g/ha",0
same,Chickweed plant response rating,"chickweed; PREEMERGENCE, Rate 8 g/ha",0
same,Chickweed plant response rating,"chickweed; PREEMERGENCE, Rate 16 g/ha",45
same,Chickweed plant response rating,"chickweed; PREEMERGENCE, Rate 32 g/ha",50
same,Chickweed plant response rating,"chickweed; PREEMERGENCE, Rate 64 g/ha",100
same,Chickweed plant response rating,"chickweed; PREEMERGENCE, Rate 125 g/ha",100
same,Chickweed plant response rating,"chickweed; PREEMERGENCE, Rate 250 g/ha",100
